From PMC8062851, “2-Methoxyestradiol and its derivatives inhibit store-operated Ca^2+ entry in T cells: Identification of a new and potent inhibitor” (Biochimica et Biophysica Acta. Molecular Cell Research, 2021)
“Also recorded” adds a separate entry of the source.

Columns and labels:
SOCE in rat TMBP cells = assay: SOCE inhibition, Ca2+ free/Ca2+ re-addition protocol in primary rat TMBP cells; assay type: cell-based
Experimental: Jurkat T-lymphocytes, primary human CD4^+ T cells and H1299 cells were pelleted at 450 ×g for 5 min, rat TMBP at 300 ×g for 8 min at room temperature and were resuspended in 1 ml of either standard JMP medium (Jurkat, H1299 and human CD4^+ T cells) or standard DMEM based medium containing 10% fetal bovine serum (FBS) (v/v) (TMBP cells). Resting TMBP cells (day 5–7 after re-stimulation) after the second to fifth re-stimulation were thawed from liquid nitrogen 12 to 40 h prior to Fura2-loading. After pre-incubation for 5 min at 37 °C, cells were incubated with 4 μM Fura2-AM for 15 min at 37 °C. After addition of the dye, cells were kept in the dark. Afterwards, cells and the dye were diluted by addition of 4 ml standard medium and incubated for another 15 min. Cells were washed twice in Ca^2+ buffer (140 mM NaCl, 5 mM KCl, 1 mM MgSO4, 1 mM CaCl2, 1 mM NaH2PO4, 20 mM HEPES, 5.5 mM glucose; pH 7.4 (NaOH), sterile filtered) and were diluted to a concentration of 2*10^6 cells/ml. […]
10^6 Jurkat T-lymphocytes, H1299 cells, TMBP cells or 4*10^6 primary human CD4^+ T cells were added into a 10 × 10 mm quartz glass cuvette (Hellma Analytics, Germany) that was placed into a fluorescence spectrophotometer (F-2710, Hitachi, Japan). […] Fluorescence intensity was measured at an emission wavelength of 495 ± 5 nm for both excitation wavelengths. […]

[1] = test system: SOCE in primary human CD4+ T cells; assay: SOCE inhibition, Ca2+ free/Ca2+ re-addition protocol in primary human CD4+ T cells; assay type: cell-based
Experimental: Buffy coats were obtained from the blood bank of the University Medical Center Hamburg-Eppendorf (UKE) and peripheral blood mononuclear cells (PBMCs) were isolated by Biocoll density gradient centrifugation (Merck). Human CD4^+ T cells were isolated from PBMCs by negative selection using the EasySep Human CD4^+ T Cell Enrichment Kit (Stemcell Technologies) according to the manufacturer's protocol. The purity of the isolated cells was assessed by flow cytometry.
Jurkat T-lymphocytes, primary human CD4^+ T cells and H1299 cells were pelleted at 450 ×g for 5 min, rat TMBP at 300 ×g for 8 min at room temperature and were resuspended in 1 ml of either standard JMP medium (Jurkat, H1299 and human CD4^+ T cells) or standard DMEM based medium containing 10% fetal bovine serum (FBS) (v/v) (TMBP cells). Resting TMBP cells (day 5–7 after re-stimulation) after the second to fifth re-stimulation were thawed from liquid nitrogen 12 to 40 h prior to Fura2-loading. After pre-incubation for 5 min at 37 °C, cells were incubated with 4 μM Fura2-AM for 15 min at 37 °C. After addition of the dye, cells were kept in the dark. Afterwards, cells and the dye were diluted by addition of 4 ml standard medium and incubated for another 15 min. Cells were washed twice in Ca^2+ buffer (140 mM NaCl, 5 mM KCl, 1 mM MgSO4, 1 mM CaCl2, 1 mM NaH2PO4, 20 mM HEPES, 5.5 mM glucose; pH 7.4 (NaOH), sterile filtered) and were diluted to a concentration of 2*10^6 cells/ml. Subsequently, cells were kept at room temperature for 20 min for de-esterification before the start of the first measurement.
(§1) 10^6 Jurkat T-lymphocytes, H1299 cells, TMBP cells or 4*10^6 primary human CD4^+ T cells were added into a 10 × 10 mm quartz glass cuvette (Hellma Analytics, Germany) that was placed into a fluorescence spectrophotometer (F-2710, Hitachi, Japan). […] Fluorescence intensity was measured at an emission wavelength of 495 ± 5 nm for both excitation wavelengths.

SOCE in H1299 cells = assay: SOCE inhibition, Ca2+ free/Ca2+ re-addition protocol in H1299 cells; assay type: cell-based, human; settings: 10 μM
Experimental: Jurkat T-lymphocytes were cultured in RPMI 1640 medium containing 25 mM HEPES and GlutaMAX-1 (Gibco, Life Technologies), supplemented with 7.5% (v/v) newborn calf serum (NCS) (Biochrom, Merck Millipore), 100 U/ml penicillin and streptomycin (standard JMP medium). Cell density was kept between 0.3 and 1.2 ∗ 10^6 cells/ml. H1299 cells were cultured in DMEM (Dulbecco's modified Eagle's medium; Gibco, Life Technologies) supplemented with 10% (v/v) (FCS) (Biochrom, Merck Millipore), 4 mM L-glutamine, 100 μg/ml streptomycin, and 100 units/ml penicillin.
Jurkat T-lymphocytes, primary human CD4^+ T cells and H1299 cells were pelleted at 450 ×g for 5 min, rat TMBP at 300 ×g for 8 min at room temperature and were resuspended in 1 ml of either standard JMP medium (Jurkat, H1299 and human CD4^+ T cells) or standard DMEM based medium containing 10% fetal bovine serum (FBS) (v/v) (TMBP cells). […]
as §1

KV channels = molecular target: T1, KV channels (Homo sapiens, UniProt P22001); assay: Whole-cell patch clamp of KV channels in Jurkat T cells; assay type: cell-based; settings: STX564 at 10 μM
T1 construct: About 10^5 Jurkat T-lymphocytes were placed into this recording chamber; endogenous in cells; host or cells: Jurkat T-lymphocytes (whole-cell patch clamp)
T1 sequence (P22001 whole entry): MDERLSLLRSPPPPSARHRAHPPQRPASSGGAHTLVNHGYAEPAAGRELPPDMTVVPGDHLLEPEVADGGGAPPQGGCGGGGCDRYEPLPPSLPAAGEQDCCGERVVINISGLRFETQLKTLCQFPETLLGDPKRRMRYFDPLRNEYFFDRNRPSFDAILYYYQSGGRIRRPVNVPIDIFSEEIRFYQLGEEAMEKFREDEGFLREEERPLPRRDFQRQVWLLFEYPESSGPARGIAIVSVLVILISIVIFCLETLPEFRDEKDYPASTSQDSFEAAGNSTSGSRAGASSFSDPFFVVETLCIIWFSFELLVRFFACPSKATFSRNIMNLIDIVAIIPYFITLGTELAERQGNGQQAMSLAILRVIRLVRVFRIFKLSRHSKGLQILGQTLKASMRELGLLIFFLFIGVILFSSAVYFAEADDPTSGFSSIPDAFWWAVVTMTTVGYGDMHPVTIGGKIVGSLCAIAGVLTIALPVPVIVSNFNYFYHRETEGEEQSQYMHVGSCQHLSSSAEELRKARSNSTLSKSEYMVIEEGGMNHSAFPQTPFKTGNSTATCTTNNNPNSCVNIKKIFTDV

human PBMCs = assay: In vitro activation of human PBMCs by anti-CD3, interferon-γ mRNA by qPCR; assay type: cell-based; settings: human PBMC; anti-CD3 stimulation; 24 h; qPCR
Experimental: In vitro activation assays were performed in 96-well plates. Briefly, 10^5 PBMCs isolated from human peripheral blood by Ficoll gradient were added onto plates coated with anti-human CD3 monoclonal antibody (5 μg ml^−1 in PBS, clone OKT3, Biolegend). 2ME2 or STX564 dissolved in DMSO were added in varying concentrations (0.01, 0.1, 1, 10 μM). […]. PBMC activation on mRNA level was determined using qPCR on samples collected 24 h after CD3 stimulation.
Total RNA was isolated using the standard TRIzol method. cDNA was synthesized using the RevertAid First Strand cDNA Synthesis Kit (Thermo Fisher Scientific). Quantitative PCR (qPCR) was performed using the StepOnePlus™ Real-Time PCR System (Applied Biosystems), as previously described [[23], [24], [25]]. Rat TMBP cell data were obtained from three to four independent duplicate measurements. β-actin served as housekeeping gene. Human PBMC data were obtained from two independent healthy donors and duplicate measurements (representative data of one donor are shown). HPRT served as housekeeping gene. For all probes (TaqMan), a combination of 5′-FAM and 3′-TAMRA quencher was used as described.

CCc1cc2c(cc1OS(N)(=O)=O)CC[C@@H]1[C@@H]2CC[C@]2(C)[C@@H](CC#N)CC[C@@H]12 [STX564, 2-ethyl-3-sulfamoyloxy-17β-cyanomethylestra-1,3,5(10)-triene]
IC50 (SOCE in rat TMBP cells): 800 nM
Ca2+ release upon drug addition in absence of extracellular Ca2+ ([1]; 10 μM): Ca^2+ release was observed directly upon drug addition
steady-state plateau phase of Ca2+ entry ([1]; 10 μM): re-reached after a few min
initial Ca2+ peak after Ca2+ re-addition and Ca2+ entry at later stages ([1]; 1 and 2 μM): efficiently inhibited
SOCE inhibition (SOCE in H1299 cells): significantly inhibited
effect on KV channel currents (KV channels): does not inhibit KV channels; also recorded: no inhibition; also recorded: does not inhibit the KV1.3 channel
concentration at which antagonist effects on interferon-γ expression were observed (human PBMCs): ≥ 1 µM
